{"source": "patent US12503436B2", "about": "“Compounds and compositions for treating conditions associated with STING activity” (NOVARTIS PHARMA AG, priority 2021, dated 2025)", "data": [{"molecular_target": "STING (Homo sapiens, UniProt Q86WV6, G230A/H232R/R293Q/R71H)", "sequence (Q86WV6 whole entry R71H/G230A/H232R/R293Q)": "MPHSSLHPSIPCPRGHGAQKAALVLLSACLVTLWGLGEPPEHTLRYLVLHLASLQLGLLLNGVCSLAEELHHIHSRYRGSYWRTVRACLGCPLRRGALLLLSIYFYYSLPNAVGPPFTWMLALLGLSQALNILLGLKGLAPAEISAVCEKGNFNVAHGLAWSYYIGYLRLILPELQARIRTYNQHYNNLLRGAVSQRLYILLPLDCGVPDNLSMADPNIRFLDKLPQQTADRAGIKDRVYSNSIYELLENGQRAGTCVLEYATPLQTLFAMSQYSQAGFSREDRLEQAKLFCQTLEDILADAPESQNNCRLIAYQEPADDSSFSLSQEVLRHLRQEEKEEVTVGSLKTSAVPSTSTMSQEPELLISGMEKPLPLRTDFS", "test": "STING reporter assay in THP1-Dual KO-IFNAR2 cells (2′3′cGAMP stimulation, luciferase reporter)", "type": "cell-based", "settings": "15 μM 2′3′cGAMP stimulation, 24 h, read-out: Pharmaron, THP1_IFNAR2 STING 24 h Luci Normalized: GeoMean EC50", "outline": "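THP1-Dual KO-IFNAR2 cells (2×10E6 cells/mL) with compounds at 0.0017-100 μM final, stimulated with 15 μM final 2′3′cGAMP delivered by Lipofectamine 2000; 24 h at 37 °C. Luciferase in supernatant read with QUANTI-Luc Plus; EC50 derived from luminescence.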", "units": {"EC50": "nM"}, "values": [{"smiles": "CO[C@H]1C[C@](C)(C(=O)Nc2c[nH]c3ccc(OCC[C@@H]4C[C@@H]5CN(CC(F)(F)F)C[C@@H]5C4)cc23)C1", "note": "[Compound 427, trans-3-methoxy-1-methyl-N-(5-(2-((3aR,5r,6aS)-2-(2,2,2-trifluoroethyl)octahydrocyclopenta[c]pyrrol-5-yl)ethoxy)-1H-indol-3-yl)cyclobutane-1-carboxamide]", "EC50": "200 to 1000"}, {"smiles": "CC1OC(C)C1C(=O)Nc1c[nH]c2ccc(OCc3ccc(C(F)(F)F)cc3)cc12", "note": "(stereo not shown) [Compound 428, 2,4-dimethyl-N-(5-((4-(trifluoromethyl)benzyl)oxy)-1H-indol-3-yl)oxetane-3-carboxamide]", "EC50": "200 to 1000"}, {"smiles": "CC[C@@H](O)C(=O)Nc1c[nH]c2ccc(O[C@H]3C[C@H](c4ccc(C(F)(F)F)cc4)C3)cc12", "note": "[Compound 429, (R)-2-hydroxy-N-(5-(trans-3-(4-(trifluoromethyl)phenyl)cyclobutoxy)-1H-indol-3-yl)butanamide]", "EC50": "200 to 1000"}, {"smiles": "CC[C@H](O)C(=O)Nc1c[nH]c2ccc(OCCc3ccc(C(F)(F)F)cc3)cc12", "note": "[Compound 430, (S)-2-hydroxy-N-(5-(4-(trifluoromethyl)phenethoxy)-1H-indol-3-yl)butanamide]", "EC50": "40 to 200"}, {"smiles": "CC[C@@H](O)C(=O)Nc1c[nH]c2ccc(OCCc3ccc(C(F)(F)F)cc3)cc12", "note": "[Compound 431, (R)-2-hydroxy-N-(5-(4-(trifluoromethyl)phenethoxy)-1H-indol-3-yl)butanamide]", "EC50": "40 to 200"}, {"smiles": "O=C(CC(O)C(F)(F)F)Nc1c[nH]c2ccc(OCC[C@@H]3C[C@@H]4CN(CC(F)(F)F)C[C@@H]4C3)cc12", "note": "(stereo partly drawn) [Compound 433, 4,4,4-trifluoro-3-hydroxy-N-(5-(2-((3aR,5r,6aS)-2-(2,2,2-trifluoroethyl)octahydrocyclopenta[c]pyrrol-5-yl)ethoxy)-1H-indol-3-yl)butanamide]", "EC50": "200 to 1000"}, {"smiles": "O=C(COCC(F)(F)F)Nc1c[nH]c2ccc(OCC[C@@H]3C[C@@H]4CN(CC(F)(F)F)C[C@@H]4C3)cc12", "note": "[Compound 434, 2-(2,2,2-trifluoroethoxy)-N-(5-(2-((3aR,5r,6aS)-2-(2,2,2-trifluoroethyl)octahydrocyclopenta[c]pyrrol-5-yl)ethoxy)-1H-indol-3-yl)acetamide]", "EC50": "40 to 200"}, {"smiles": "CC(=O)Nc1c[nH]c2ccc(O[C@H]3C[C@H](c4ccc(C(F)(F)F)cc4C)C3)cc12", "note": "[Compound 435, N-(5-(trans-3-(2-methyl-4-(trifluoromethyl)phenyl)cyclobutoxy)-1H-indol-3-yl)acetamide]", "EC50": "40 to 200"}, {"smiles": "CC(=O)Nc1c[nH]c2ccc(OC3CCc4cc(C(F)(F)F)ccc4C3)cc12", "note": "(stereo not shown) [Compound 436, N-(5-((6-(trifluoromethyl)-1,2,3,4-tetrahydronaphthalen-2-yl)oxy)-1H-indol-3-yl)acetamide]", "EC50": "40 to 200"}, {"smiles": "CC(=O)Nc1c[nH]c2ccc(OCC3CCc4ccc(C(F)(F)F)cc4C3)cc12", "note": "(stereo not shown) [Compound 437, N-(5-((7-(trifluoromethyl)-1,2,3,4-tetrahydronaphthalen-2-yl)methoxy)-1H-indol-3-yl)acetamide]", "EC50": "200 to 1000"}, {"smiles": "CC(=O)Nc1c[nH]c2ccc(CCOc3ccc(OC(F)(F)F)c(F)c3)cc12", "note": "[Compound 438, N-(5-{2-[3-fluoro-4-(trifluoromethoxy)phenoxy]ethyl}-1H-indol-3-yl)acetamide]", "EC50": "40 to 200"}, {"smiles": "CC(=O)Nc1c[nH]c2ccc(CCOc3cncc(C(F)F)c3)cc12", "note": "[Compound 439, N-[5-(2-{[5-(difluoromethyl)pyridin-3-yl]oxy}ethyl)-1H-indol-3-yl]acetamide]", "EC50": "5000 to 100000"}, {"smiles": "CC(=O)Nc1c[nH]c2ccc(CCOc3ccc(C(F)(F)F)cc3C#N)cc12", "note": "[Compound 440, N-(5-{2-[2-cyano-4-(trifluoromethyl)phenoxy]ethyl}-1H-indol-3-yl)acetamide]", "EC50": "1000 to 5000"}, {"smiles": "CC(=O)Nc1c[nH]c2ccc(CCOc3cccc(CC(F)(F)F)c3)cc12", "note": "[Compound 441, N-(5-{2-[3-(2,2,2-trifluoroethyl)phenoxy]ethyl}-1H-indol-3-yl)acetamide]", "EC50": "40 to 200"}, {"smiles": "CC(=O)Nc1c[nH]c2ccc(CCOc3ccc(CC(F)(F)F)cc3)cc12", "note": "[Compound 442, N-(5-{2-[4-(2,2,2-trifluoroethyl)phenoxy]ethyl}-1H-indol-3-yl)acetamide]", "EC50": "40 to 200"}, {"smiles": "CC(=O)Nc1c[nH]c2ccc(O[C@@H]3C[C@@H](c4ccc(C(F)(F)F)cc4)[C@H]3C)cc12", "note": "[Compound 443, N-(5-((1R,2R,3R)-2-methyl-3-(4-(trifluoromethyl)phenyl)cyclobutoxy)-1H-indol-3-yl)acetamide]", "EC50": "200 to 1000"}, {"smiles": "CC(=O)Nc1c[nH]c2ccc(OCC3Cc4cnn(CC(F)(F)F)c4C3)cc12", "note": "(stereo not shown) [Compound 444, N-(5-((1-(2,2,2-trifluoroethyl)-1,4,5,6-tetrahydrocyclopenta[c]pyrazol-5-yl)methoxy)-1H-indol-3-yl)acetamide]", "EC50": "5000 to 100000"}, {"smiles": "C[C@]1(C(=O)Nc2c[nH]c3ccc(OCCc4ccc(C(F)(F)F)cc4)cc23)C[C@@H](O)C1", "note": "[Compound 445, (cis)-3-hydroxy-1-methyl-N-(5-(4-(trifluoromethyl)phenethoxy)-1H-indol-3-yl)cyclobutane-1-carboxamide]", "EC50": "40 to 200"}, {"smiles": "C[C@]1(C(=O)Nc2c[nH]c3ccc(OCCc4ccc(C(F)(F)F)cc4)cc23)C[C@H](O)C1", "note": "[Compound 446, trans-3-hydroxy-1-methyl-N-(5-(4-(trifluoromethyl)phenethoxy)-1H-indol-3-yl)cyclobutane-1-carboxamide]", "EC50": "40 to 200"}, {"smiles": "CC(=O)Nc1c[nH]c2ccc(OCC3Cc4cn(CC(F)(F)F)nc4C3)cc12", "note": "(stereo not shown) [Compound 447, N-(5-((2-(2,2,2-trifluoroethyl)-2,4,5,6-tetrahydrocyclopenta[c]pyrazol-5-yl)methoxy)-1H-indol-3-yl)acetamide]", "EC50": "5000 to 100000"}, {"smiles": "CC(=O)Nc1c[nH]c2ccc(O[C@@H]3C[C@@H](c4ccc(C(F)(F)F)cc4)[C@@H]3C)cc12", "note": "[Compound 448, N-(5-((1R,2S,3R)-2-methyl-3-(4-(trifluoromethyl)phenyl)cyclobutoxy)-1H-indol-3-yl)acetamide]", "EC50": "40 to 200"}, {"smiles": "CC(=O)Nc1c[nH]c2ccc(CCOc3ccc4ccncc4c3)cc12", "note": "[Compound 449, N-{5-[2-(isoquinolin-7-yloxy)ethyl]-1H-indol-3-yl}acetamide]", "EC50": "1000 to 5000"}, {"smiles": "CC(=O)Nc1c[nH]c2ccc(CCOc3ccc(Cl)cc3C(F)(F)F)cc12", "note": "[Compound 450, N-(5-{2-[4-chloro-2-(trifluoromethyl)phenoxy]ethyl}-1H-indol-3-yl)acetamide]", "EC50": "200 to 1000"}, {"smiles": "CC(=O)Nc1c[nH]c2ccc(CCOc3ccc(-c4ccncc4)cc3)cc12", "note": "[Compound 451, N-(5-{2-[4-(pyridin-4-yl)phenoxy]ethyl} -1H-indol-3-yl)acetamide]", "EC50": "1000 to 5000"}, {"smiles": "CC(=O)Nc1c[nH]c2ccc(CCOc3ccc(OCC(F)(F)F)cc3)cc12", "note": "[Compound 452, N-(5-{2-[4-(2,2,2-trifluoroethoxy)phenoxy]ethyl}-1H-indol-3-yl)acetamide]", "EC50": "40 to 200"}, {"smiles": "CC(=O)Nc1c[nH]c2ccc(CCOc3cccc(CC#N)c3)cc12", "note": "[Compound 453, N-(5-{2-[3-(cyanomethyl)phenoxy]ethyl}-1H-indol-3-yl)acetamide]", "EC50": "1000 to 5000"}, {"smiles": "CC(=O)Nc1c[nH]c2ccc(O[C@H]3C[C@@H](c4ccc(C(F)(F)F)nc4)C3)cc12", "note": "[Compound 455, N-(5-(cis-3-(6-(trifluoromethyl)pyridin-3-yl)cyclobutoxy)-1H-indol-3-yl)acetamide]", "EC50": "200 to 1000"}, {"smiles": "CC(=O)Nc1c[nH]c2ccc(CC[C@@H]3C[C@@H]4CN(CC(F)(F)F)C[C@@H]4C3)cc12", "note": "[Compound 457, N-(5-(2-((3aR,5r,6aS)-2-(2,2,2-trifluoroethyl)octahydrocyclopenta[c]pyrrol-5-yl)ethyl)-1H-indol-3-yl)acetamide]", "EC50": "200 to 1000"}, {"smiles": "CC(=O)Nc1c[nH]c2ccc(OCCC34CC(C3)C4)cc12", "note": "[Compound 458, N-(5-(2-(bicyclo[1.1.1]pentan-1-yl)ethoxy)-1H-indol-3-yl)acetamide]", "EC50": "1000 to 5000"}, {"smiles": "O=C(Nc1c[nH]c2ccc(O[C@H]3C[C@H](c4ccc(C(F)(F)F)cc4)C3)cc12)C1CNC1", "note": "[Compound 459, N-{5-[(1R, 3R)-3-[4-(trifluoromethyl)phenyl]cyclobutoxy]-1H-indol-3-yl}azetidine-3-carboxamide]", "EC50": "5000 to 100000"}, {"smiles": "CC1(C(=O)Nc2c[nH]c3ccc(O[C@H]4C[C@H](c5ccc(C(F)(F)F)cc5)C4)cc23)CCNCC1", "note": "[Compound 460, 4-methyl-N-{5-[(1R,3R)-3-[4-(trifluoromethyl)phenyl]cyclobutoxy]-1H-indol-3-yl}piperidine-4-carboxamide]", "EC50": "1000 to 5000"}, {"smiles": "COCCc1ccc(OCCc2ccc3[nH]cc(NC(C)=O)c3c2)cc1", "note": "[Compound 461, N-(5-{2-[4-(2-methoxyethyl)phenoxy]ethyl}-1H-indol-3-yl)acetamide]", "EC50": "200 to 1000"}, {"smiles": "CC(=O)Nc1c[nH]c2ccc(CCOc3ccc(C#N)cc3)cc12", "note": "[Compound 462, N-{5-[2-(4-cyanophenoxy)ethyl]-1H-indol-3-yl}acetamide]", "EC50": "1000 to 5000"}, {"smiles": "CC(=O)Nc1c[nH]c2ccc(CCOc3ccnc(C4CC4)c3)cc12", "note": "[Compound 463]", "EC50": "5000 to 100000"}, {"smiles": "CC1(C(=O)Nc2c[nH]c3ccc(CCCc4ccc(C(F)(F)F)cn4)cc23)CC1", "note": "[Compound 464, 1-methyl-N-(5-(3-(5-(trifluoromethyl)pyridin-2-yl)propyl)-1H-indol-3-yl)cyclopropane-1-carboxamide]", "EC50": "200 to 1000"}, {"smiles": "O=C(Nc1c[nH]c2ccc(O[C@H]3C[C@H](c4ccc(C(F)(F)F)nc4)C3)cc12)c1ccc(C(F)(F)F)cc1", "note": "[Compound 465, 4-(trifluoromethyl)-N-(5-(trans-3-(6-(trifluoromethyl)pyridin-3-yl)cyclobutoxy)-1H-indol-3-yl)benzamide]", "EC50": "200 to 1000"}, {"smiles": "CC(C)(C)OC(=O)N1CC(C(=O)Nc2c[nH]c3ccc(O[C@H]4C[C@H](c5ccc(C(F)(F)F)cc5)C4)cc23)C1", "note": "[Compound 466, tert-butyl 3-((5-(trans-3-(4-(trifluoromethyl)phenyl)cyclobutoxy)-1H-indol-3-yl)carbamoyl)azetidine-1-carboxylate]", "EC50": "200 to 1000"}]}]}
